Assay results published in ChEMBL document CHEMBL1201862, “PubChem BioAssay data set” (2004).
Values belong to the molecule of their own block, whether it stands above or below them. Active and inactive are the calls of the source.

What was measured:
Aminopeptidase N = target: T1, Aminopeptidase N (Plasmodium falciparum FcB1/Columbia, UniProt O96935); experiment: P. falciparum M1AAP inhibitors, biochemical, fluorogenic H-Leu-NHMec substrate, 1536-well (AID 1445); parameters: species or system Plasmodium falciparum 3D7, 3D7
T1 sequence (O96935 whole entry): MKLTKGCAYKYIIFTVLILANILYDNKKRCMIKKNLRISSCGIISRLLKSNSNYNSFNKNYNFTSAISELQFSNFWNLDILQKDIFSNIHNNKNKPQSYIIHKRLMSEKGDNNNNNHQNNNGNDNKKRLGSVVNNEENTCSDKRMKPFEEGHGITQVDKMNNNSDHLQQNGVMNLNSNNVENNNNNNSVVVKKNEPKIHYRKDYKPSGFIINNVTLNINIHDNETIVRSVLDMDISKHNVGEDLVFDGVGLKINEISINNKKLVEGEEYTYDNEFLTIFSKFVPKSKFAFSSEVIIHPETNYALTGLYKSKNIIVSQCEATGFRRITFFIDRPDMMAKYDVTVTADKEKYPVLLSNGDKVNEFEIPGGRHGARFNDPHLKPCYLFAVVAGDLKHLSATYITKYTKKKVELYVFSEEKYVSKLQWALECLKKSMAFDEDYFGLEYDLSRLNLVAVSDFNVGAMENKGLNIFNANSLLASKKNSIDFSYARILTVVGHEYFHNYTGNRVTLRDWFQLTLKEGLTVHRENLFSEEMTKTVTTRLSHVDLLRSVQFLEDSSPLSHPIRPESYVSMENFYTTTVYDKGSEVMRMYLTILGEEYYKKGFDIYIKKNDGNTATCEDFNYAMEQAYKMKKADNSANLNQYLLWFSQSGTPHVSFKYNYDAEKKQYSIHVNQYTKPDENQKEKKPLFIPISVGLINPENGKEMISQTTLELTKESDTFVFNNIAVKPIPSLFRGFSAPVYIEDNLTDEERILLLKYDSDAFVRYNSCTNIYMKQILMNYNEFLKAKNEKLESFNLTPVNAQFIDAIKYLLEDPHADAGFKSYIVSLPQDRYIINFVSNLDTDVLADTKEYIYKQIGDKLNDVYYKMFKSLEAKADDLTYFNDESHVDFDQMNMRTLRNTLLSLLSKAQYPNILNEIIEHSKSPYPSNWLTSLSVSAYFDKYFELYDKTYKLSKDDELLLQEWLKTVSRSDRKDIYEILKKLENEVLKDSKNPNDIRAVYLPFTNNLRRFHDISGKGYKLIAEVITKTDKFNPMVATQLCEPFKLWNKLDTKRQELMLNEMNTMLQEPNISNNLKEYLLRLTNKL

[1] = inhibitors of Bluetongue virus cytopathic effect, confirmation, arbovirus, BSR cells (AID 1250); assay type: functional;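 note: protection from viral cytopathic effect measured as cell viability by ATP luminescence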
NS3 = NS3 (Hepatitis C virus, UniProt A3EZJ3); experiment: PubChem AID 2173; parameters: species or system Hepacivirus hominis
[2] = target: T2, Short transient receptor potential channel 4 (Mus musculus, UniProt Q9QUQ5); experiment: mouse TRPC4 channel activators, dose response, cell-based, HEK293 TRPC4/mu-opioid, Fluo-4 calcium (AID 434937); assay type: functional
T2 sequence (Q9QUQ5 whole entry): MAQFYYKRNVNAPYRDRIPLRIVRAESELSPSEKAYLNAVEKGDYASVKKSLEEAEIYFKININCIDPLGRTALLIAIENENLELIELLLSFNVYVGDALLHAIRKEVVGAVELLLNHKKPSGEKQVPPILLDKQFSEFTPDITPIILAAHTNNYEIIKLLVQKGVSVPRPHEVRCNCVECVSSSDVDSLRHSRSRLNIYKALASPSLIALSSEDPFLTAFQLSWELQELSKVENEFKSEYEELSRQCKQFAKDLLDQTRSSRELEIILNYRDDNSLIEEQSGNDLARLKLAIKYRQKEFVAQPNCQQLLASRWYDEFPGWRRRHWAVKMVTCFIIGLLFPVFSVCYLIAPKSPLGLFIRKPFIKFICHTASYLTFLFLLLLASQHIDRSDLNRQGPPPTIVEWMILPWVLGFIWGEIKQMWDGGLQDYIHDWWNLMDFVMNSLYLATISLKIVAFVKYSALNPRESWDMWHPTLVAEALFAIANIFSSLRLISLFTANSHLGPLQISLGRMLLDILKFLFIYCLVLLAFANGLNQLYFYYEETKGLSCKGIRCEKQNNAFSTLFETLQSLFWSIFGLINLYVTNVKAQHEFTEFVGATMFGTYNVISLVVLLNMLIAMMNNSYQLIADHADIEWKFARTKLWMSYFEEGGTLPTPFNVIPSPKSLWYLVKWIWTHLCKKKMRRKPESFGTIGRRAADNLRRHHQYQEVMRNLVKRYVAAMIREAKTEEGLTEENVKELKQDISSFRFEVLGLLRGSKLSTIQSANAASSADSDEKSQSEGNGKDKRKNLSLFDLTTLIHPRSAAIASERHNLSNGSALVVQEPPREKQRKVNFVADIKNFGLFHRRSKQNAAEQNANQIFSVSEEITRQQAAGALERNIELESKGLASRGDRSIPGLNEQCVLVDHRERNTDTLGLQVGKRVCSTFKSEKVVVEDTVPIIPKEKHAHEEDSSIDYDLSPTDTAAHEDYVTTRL

[3] = target: Lysosomal acid glucosylceramidase (Homo sapiens, UniProt P04062); experiment: Dose response cell-based high throughput screening assay to identify enhancers of beta-glucosidase activity. [Related pubchem assays: 784 ]; assay type: functional
[4] = target: Acyl-homoserine lactone acylase PvdQ (Pseudomonas aeruginosa (strain LESB58), UniProt Q9I194); experiment: P. aeruginosa PvdQ acylase inhibitors, dose response, biochemical, fluorescence, plate reader and imaging, cherry-picks (AID 493231)
HEK293 [5] = experiment: Cytotoxicity assay in HEK293 cells. [Related pubchem assays (depositor defined):AID1266, AID1269, AID1270, AID1271, AID1280, AID1281, AID1282, AID1283, AID1287, AID1289, AID1290, AID1291, AID1292, AID1293, AID1294, AID1295, AID1299, AID1302, AID1364, AID1365, AID1366, AID1367, AID1369, AID1370, AID1371, AID1372, AID1373, AID1374, AID1375, AID1384 …; assay type: functional, cell-based; conditions: Homo sapiens
HEK293 [6] = experiment: PMA/Ionomycin-induced IL-8 production in HEK293- NF-kB-Luc stable cells. [Related pubchem assays: 1299, 1295, 1375, 1287, 1281, 1293, 1291, 1289, 1280, 465, 1364, 1282, 1372, 1365, 1367, 1366, 1266, 1269, 1373, 1292, 1290, 1302, 1371, 1283, 1271, 1294, 1374, 1368, 1369 ]; assay type: functional, cell-based; conditions: Homo sapiens
HEK293 [7] = experiment: PMA/Ionomycin induced NF-kB luciferase assay in 293- NF-kB-Luc stable cells. [Related pubchem assays: 1299, 1270, 1295, 1375, 1287, 1281, 1293, 1291, 1289, 1280, 465, 1364, 1282, 1372, 1365, 1370, 1367, 1366, 1269, 1373, 1292, 1290, 1302, 1371, 1283, 1271, 1294, 1374, 1368, 1369 ]; assay type: functional, cell-based; conditions: Homo sapiens
HEK293 [8] = experiment: TNF Induced NF-kB Luciferase in 293-NF-kB-Luc Stable Cells. [Related pubchem assays: 1266, 1299, 1269, 1373, 1292, 1290, 1302, 1371, 1283, 1270, 1295, 1271, 1375, 1294, 1374, 1281, 1293, 1291, 1289, 1280, 465, 1368, 1364, 1282, 1372, 1365, 1369, 1370, 1367, 1366 ]; assay type: functional, cell-based; conditions: Homo sapiens
[9] = target: Luciferin 4-monooxygenase (Photinus pyralis, UniProt P08659); experiment: In vitro luciferase assay using purified luciferase. [Related pubchem assays: 1299, 1270, 1295, 1375, 1287, 1281, 1293, 1291, 1289, 1280, 465, 1364, 1282, 1372, 1365, 1370, 1367, 1366, 1266, 1373, 1292, 1290, 1302, 1371, 1283, 1271, 1294, 1374, 1368, 1369 ]
Luciferin 4-monooxygenase, sequence (P08659 whole entry): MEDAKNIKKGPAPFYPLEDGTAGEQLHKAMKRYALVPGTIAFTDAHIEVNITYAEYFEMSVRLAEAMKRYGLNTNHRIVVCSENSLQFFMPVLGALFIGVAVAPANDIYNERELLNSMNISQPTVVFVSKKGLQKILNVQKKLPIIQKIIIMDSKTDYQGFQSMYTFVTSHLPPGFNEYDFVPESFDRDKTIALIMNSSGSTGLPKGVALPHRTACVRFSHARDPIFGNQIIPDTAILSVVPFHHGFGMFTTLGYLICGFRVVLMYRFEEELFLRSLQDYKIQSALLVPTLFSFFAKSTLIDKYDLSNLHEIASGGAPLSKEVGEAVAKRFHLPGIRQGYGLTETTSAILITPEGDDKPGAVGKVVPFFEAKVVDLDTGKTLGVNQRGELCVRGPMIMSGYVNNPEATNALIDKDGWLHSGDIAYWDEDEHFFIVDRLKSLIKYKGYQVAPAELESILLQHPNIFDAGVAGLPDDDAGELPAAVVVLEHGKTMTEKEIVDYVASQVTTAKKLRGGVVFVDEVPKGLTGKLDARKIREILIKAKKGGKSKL

NS3, sequence (A3EZJ3 whole entry): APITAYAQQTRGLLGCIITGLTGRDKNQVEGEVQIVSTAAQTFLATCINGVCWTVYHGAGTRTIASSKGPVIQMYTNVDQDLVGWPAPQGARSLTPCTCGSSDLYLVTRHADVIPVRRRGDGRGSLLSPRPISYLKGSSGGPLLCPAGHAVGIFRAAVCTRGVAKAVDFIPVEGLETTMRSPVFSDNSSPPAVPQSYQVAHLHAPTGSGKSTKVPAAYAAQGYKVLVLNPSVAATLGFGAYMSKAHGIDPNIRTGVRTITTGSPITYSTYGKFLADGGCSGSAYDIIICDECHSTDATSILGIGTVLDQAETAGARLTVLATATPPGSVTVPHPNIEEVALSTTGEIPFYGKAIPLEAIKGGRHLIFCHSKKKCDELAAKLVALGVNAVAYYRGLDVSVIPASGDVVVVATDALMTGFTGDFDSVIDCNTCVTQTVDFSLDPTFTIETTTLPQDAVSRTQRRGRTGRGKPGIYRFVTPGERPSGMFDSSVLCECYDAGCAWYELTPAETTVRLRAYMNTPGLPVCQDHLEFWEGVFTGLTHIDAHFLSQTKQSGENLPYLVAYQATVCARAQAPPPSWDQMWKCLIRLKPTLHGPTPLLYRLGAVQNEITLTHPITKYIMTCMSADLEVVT
Acyl-homoserine lactone acylase PvdQ, sequence (Q9I194 24-193 limits assumed): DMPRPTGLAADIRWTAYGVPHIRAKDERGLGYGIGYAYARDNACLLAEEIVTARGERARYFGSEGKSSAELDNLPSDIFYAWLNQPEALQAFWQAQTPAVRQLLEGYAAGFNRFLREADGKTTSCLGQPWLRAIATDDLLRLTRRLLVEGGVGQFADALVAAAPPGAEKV
Acyl-homoserine lactone acylase PvdQ, sequence (Q9I194 217-762 limits assumed): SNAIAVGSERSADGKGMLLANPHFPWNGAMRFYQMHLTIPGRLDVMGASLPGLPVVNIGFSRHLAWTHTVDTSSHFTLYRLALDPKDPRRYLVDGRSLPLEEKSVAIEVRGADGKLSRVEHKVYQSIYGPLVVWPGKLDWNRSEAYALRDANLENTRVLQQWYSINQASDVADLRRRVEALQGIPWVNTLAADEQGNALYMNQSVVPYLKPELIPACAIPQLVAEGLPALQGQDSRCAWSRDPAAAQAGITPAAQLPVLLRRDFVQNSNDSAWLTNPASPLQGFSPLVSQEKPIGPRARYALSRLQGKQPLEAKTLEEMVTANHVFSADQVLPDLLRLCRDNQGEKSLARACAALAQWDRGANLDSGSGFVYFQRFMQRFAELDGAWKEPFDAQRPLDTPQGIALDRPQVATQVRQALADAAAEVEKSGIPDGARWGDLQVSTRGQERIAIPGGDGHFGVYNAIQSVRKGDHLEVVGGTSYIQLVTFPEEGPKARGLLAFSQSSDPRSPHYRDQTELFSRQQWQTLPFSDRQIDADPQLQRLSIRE
Lysosomal acid glucosylceramidase, sequence (P04062 whole entry): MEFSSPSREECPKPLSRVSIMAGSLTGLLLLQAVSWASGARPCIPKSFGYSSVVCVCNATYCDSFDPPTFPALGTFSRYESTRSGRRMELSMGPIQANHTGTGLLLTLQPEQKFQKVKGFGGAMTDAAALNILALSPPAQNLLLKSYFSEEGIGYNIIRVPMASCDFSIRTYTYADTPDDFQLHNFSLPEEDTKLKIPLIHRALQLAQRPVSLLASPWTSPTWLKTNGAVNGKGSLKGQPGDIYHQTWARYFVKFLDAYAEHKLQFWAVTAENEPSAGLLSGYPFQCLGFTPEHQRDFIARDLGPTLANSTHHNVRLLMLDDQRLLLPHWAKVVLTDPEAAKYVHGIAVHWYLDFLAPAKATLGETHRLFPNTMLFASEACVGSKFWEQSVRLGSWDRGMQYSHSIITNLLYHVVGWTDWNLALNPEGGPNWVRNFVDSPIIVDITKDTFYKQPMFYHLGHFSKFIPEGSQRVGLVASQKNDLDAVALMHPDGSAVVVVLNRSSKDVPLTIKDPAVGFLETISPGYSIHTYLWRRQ

- IC50 (NS3): 15.2 µM (not active)
- EC50 [2]: 5.96 µM (active)
Compound: Cc1occc1C(=O)NNC(=S)NC(=O)COc1ccc(Cl)cc1Cl

- EC50 [3]: > 50 µM (not active)
Compound: C=CCSC1=N/C(=C\c2ccsc2)C(=O)S1

Further lines, the molecule ahead of its results:

Compound: CS(=O)(=O)C1=NSC2=NC(=O)/C(=C\c3ccc(-c4ccccc4)o3)C(=N)N21
- IC50 (Aminopeptidase N): 71.1 µM (active)
- IC50 [1]: 36 µM (active)

Compound: N#CC(c1ccc(Cl)cc1)c1ccc(Cl)nn1 (stereo unspecified)
- AC50 [4]: 991 nM (active)

Compound: COc1cc(NC(=O)c2cccc3c2C(=O)N(Cc2cccnc2)C3)cc(OC)c1OC
- EC50 (HEK293 [5]): > 8 µM (inactive)
- EC50 (HEK293 [6]): 13.9 µM (not active)
- EC50 (HEK293 [7]): 744 nM (active)
- EC50 (HEK293 [8]): > 8 µM (not active)
- EC50 [9]: > 8 µM (not active)
